# US12509454B2, “Thiadiazolyl derivatives” (IDEAYA Biosciences, Inc., priority 2019, dated 2025)
# Biological target: Pol theta (1-899) (Homo sapiens (Human), UniProt O75417)
# Experiment: Pol theta ATPase activity, NADH oxidation-coupled enzymatic assay
# Assay type: biochemical
# Details: Pol theta (1-899) 10 nM, ATP, dT50 ssDNA, absorbance 340 nm, 10-point dilution series; read-out: ATPase NADH coupling:Standard Screening:hPolQ IC50
# Summary of the method: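 Pol theta (1-899), 10 nM, preincubated 15 min at RT with 10-point compound series in Tris pH 7.80/KCl/MgCl2 buffer, then given 100 μM ATP plus 300 nM dT50 ssDNA with PK/LDH-coupled NADH oxidation. A340 followed for 30 min; rate slopes fitted with a four-parameter model for IC50.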
# Pol theta (1-899), sequence (O75417 1-899): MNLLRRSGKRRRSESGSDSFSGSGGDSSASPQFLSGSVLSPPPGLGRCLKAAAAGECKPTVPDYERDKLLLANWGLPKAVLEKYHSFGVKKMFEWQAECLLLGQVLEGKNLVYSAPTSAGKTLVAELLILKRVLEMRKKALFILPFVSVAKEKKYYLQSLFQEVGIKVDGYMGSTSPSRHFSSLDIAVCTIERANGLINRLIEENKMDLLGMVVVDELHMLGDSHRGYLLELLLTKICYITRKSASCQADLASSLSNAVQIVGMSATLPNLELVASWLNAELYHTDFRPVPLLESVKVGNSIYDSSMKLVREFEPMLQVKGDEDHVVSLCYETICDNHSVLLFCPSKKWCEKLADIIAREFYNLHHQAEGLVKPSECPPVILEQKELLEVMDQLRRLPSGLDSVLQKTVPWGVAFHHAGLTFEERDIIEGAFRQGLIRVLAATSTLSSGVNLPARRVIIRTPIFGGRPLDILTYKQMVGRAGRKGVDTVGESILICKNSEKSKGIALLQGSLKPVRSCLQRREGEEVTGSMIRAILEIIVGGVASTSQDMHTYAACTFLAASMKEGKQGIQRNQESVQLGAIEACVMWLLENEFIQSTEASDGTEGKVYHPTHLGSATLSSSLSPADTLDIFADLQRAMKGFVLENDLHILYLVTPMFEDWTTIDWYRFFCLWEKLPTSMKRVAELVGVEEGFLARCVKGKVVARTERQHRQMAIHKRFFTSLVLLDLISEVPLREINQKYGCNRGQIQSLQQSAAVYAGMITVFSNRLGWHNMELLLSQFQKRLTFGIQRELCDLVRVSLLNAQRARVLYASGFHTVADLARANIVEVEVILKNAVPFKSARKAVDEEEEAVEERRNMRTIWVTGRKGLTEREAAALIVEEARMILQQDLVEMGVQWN
row,IC50 [nM],Structure (SMILES)
1,≤ 200,"COc1ccccc1-c1cc(C)ncc1C(=O)Nc1nnc(OCc2ccc(C3CC3)cn2)s1 [Example 214, N-(5-((5-cyclopropylpyridin-2-yl)methoxy)-1,3,4-thiadiazol-2-yl)-4-(2-methoxyphenyl)-6-methylnicotinamide]"
2,200 to 500,"C[C@@H]1COCCN1c1ncccc1C(=O)Nc1nnc(OCc2ccc(Cl)cc2)s1 [Example 9, (R)—N-(5-((4-chlorobenzyl)oxy)-1,3,4-thiadiazol-2-yl)-2-(3-methylmorpholino)nicotinamide]"
3,≤ 200,"O=C(Nc1nnc(OCc2ccc(Cl)cc2)s1)c1ccncc1N1CCCn2nccc21 [Example 142, N-[5-[(4-chlorophenyl)methoxy]-1,3,4-thiadiazol-2-yl]-3-[5H,6H,7H-pyrazolo[1,5-a]pyrimidin-4-yl]pyridine-4-carboxamide]"
4,≤ 200,"COc1c(CO)cccc1-c1cc(C)ncc1C(=O)Nc1nnc(OCc2ccc(Cl)cn2)s1 [Example 195, N-[5-[(5-chloropyridin-2-yl)methoxy]-1,3,4-thiadiazol-2-yl]-4-[3-(hydroxymethyl)-2-methoxyphenyl]-6-methylpyridine-3-carboxamide]"
5,200 to 500,"CC1COCCN1c1ncccc1C(=O)Nc1nnc(OCc2ccc(Cl)cc2)s1 (racemic) [Example 5, (R) N-(5-((4-chlorobenzyl)oxy)-1,3,4-thiadiazol-2-yl)-2-(3-methylmorpholino)-nicotinamide and (S)—N-(5-((4-chlorobenzyl)oxy)-1,3,4-thiadiazol-2-yl)-2-(3-methylmorpholino)nicotinamide]"
6,1000 to 10000,"O=C1CN(c2ncccc2C(=O)Nc2nnc(OCc3ccc(Cl)cc3)s2)CCCN1 [Example 63, N-(5-((4-chlorobenzyl)oxy)-1,3,4-thiadiazol-2-yl)-2-(3-oxo-1,4-diazepan-1-yl)nicotinamide]"
7,≤ 200,"O=C(Nc1nnc(OCc2ccc(Cl)cc2)s1)c1ccncc1-c1cccc2nsnc12 [Example 103, 3-(benzo[c][1,2,5]thiadiazol-4-yl)-N-(5-((4-chlorobenzyl)oxy)-1,3,4-thiadiazol-2-yl)isonicotinamide]"
8,200 to 500,"N#Cc1ccc(C(=O)Nc2nnc(OCc3ccc(Cl)cc3)s2)c(N2CCOCC2)c1 [Example 72, N-(5-((4-chlorobenzyl)oxy)-1,3,4-thiadiazol-2-yl)-4-cyano-2-morpholinobenzamide]"
9,200 to 500,"COc1ccccc1-c1cc(C)ncc1C(=O)Nc1nnc(OCCc2ccc(Cl)cn2)s1 [Example 197, N-(5-(2-(5-chloropyridin-2-yl)ethoxy)-1,3,4-thiadiazol-2-yl)-4-(2-methoxyphenyl)-6-methylnicotinamide]"
10,≤ 200,"O=C(Nc1nnc(OCc2ccc(Cl)cc2)s1)c1cc(C#CCO)ncc1-c1ccccc1OC(F)F [Example 147, N-[5-[(4-chlorophenyl)methoxy]-1,3,4-thiadiazol-2-yl]-5-[2-(difluoromethoxy)phenyl]-2-(3-hydroxyprop-1-yn-1-yl)pyridine-4-carboxamide]"
11,≤ 200,"COc1cc(F)ccc1-c1ccncc1C(=O)Nc1nnc(OCc2ccc(Cl)cc2)s1 [Example 155, N-[5-[(4-chlorophenyl)methoxy]-1,3,4-thiadiazol-2-yl]-4-(4-fluoro-2-methoxyphenyl)pyridine-3-carboxamide]"
12,≤ 200,"COc1ccccc1-c1cc(C)ncc1C(=O)Nc1nnc(OCc2ccc(C3(C#N)CC3)cn2)s1 [Example 220, N-(5-[[5-(1-cyanocyclopropyl)pyridin-2-yl]methoxy]-1,3,4-thiadiazol-2-yl)-4-(2-methoxyphenyl)-6-methylpyridine-3-carboxamide]"
13,≤ 200,"COc1ccccc1-c1cc(C)ncc1C(=O)Nc1nnc(OCc2ccc(C#N)cn2)s1 [Example 219, N-(5-((5-cyanopyridin-2-yl)methoxy)-1,3,4-thiadiazol-2-yl)-4-(2-methoxyphenyl)-6-methylnicotinamide]"
14,≤ 200,"Cc1cc(-c2c(F)cccc2OC(F)F)c(C(=O)Nc2nnc(OCc3ccc(Cl)cn3)s2)cn1 [Example 190, N-(5-((5-chloropyridin-2-yl)methoxy)-1,3,4-thiadiazol-2-yl)-4-(2-(difluoromethoxy)-6-fluorophenyl)-6-methylnicotinamide]"
15,500 to 1000,"O=C(Nc1nnc(OCc2ccc(Cl)cc2)s1)c1cccnc1N1CCN2C(=O)CCC2C1 (racemic) [Example 57, (R) N-(5-((4-chlorobenzyl)oxy)-1,3,4-thiadiazol-2-yl)-2-(6-oxohexahydropyrrolo[1,2-a]pyrazin-2(1H)-yl)nicotinamide and (S) N-(5-((4-chlorobenzyl)oxy)-1,3,4-thiadiazol-2-yl)-2-(6-oxohexahydropyrrolo[1,2-a]pyrazin-2(1H)-yl)nicotinamide]"
16,≤ 200,"O=C(Nc1nnc(OCc2ccc(Cl)cc2)s1)c1cccnc1N1CCOC2(CC2)C1 [Example 30, N-(5-((4-chlorobenzyl)oxy)-1,3,4-thiadiazol-2-yl)-2-(4-oxa-7-azaspiro[2.5]octan-7-yl)nicotinamide]"
17,≤ 200,"COc1ccccc1-n1cncc1C(=O)Nc1nnc(OCc2ccc(Br)cc2)s1 [Example 86, N-(5-((4-bromobenzyl)oxy)-1,3,4-thiadiazol-2-yl)-1-(2-methoxyphenyl)-1H-imidazole-5-carboxamide]"

row,IC50 [nM],Structure (SMILES)
1,≤ 200,"COc1ccccc1-n1nncc1C(=O)Nc1nnc(OCc2ccc(F)cc2)s1 [Example 82, N-(5-((4-fluorobenzyl)oxy)-1,3,4-thiadiazol-2-yl)-1-(2-methoxyphenyl)-1H-1,2,3-triazole-5-carboxamide]"
2,500 to 1000,"CNC(=O)c1cc(N2CCNC(=O)CC2)c(C(=O)Nc2nnc(OCc3ccc(Cl)cc3)s2)cn1 [Example 87, N^5-(5-((4-chlorobenzyl)oxy)-1,3,4-thiadiazol-2-yl)-N2-methyl-4-(5-oxo-1,4-diazepan-1-yl)pyridine-2,5-dicarboxamide]"
3,≤ 200,"COc1ccccc1-c1cc(CO)ncc1C(=O)Nc1nnc(OCc2ccc(Cl)cc2)s1 [Example 102, N-(5-((4-chlorobenzyl)oxy)-1,3,4-thiadiazol-2-yl)-6-(hydroxymethyl)-4-(2-methoxyphenyl)nicotinamide]"
4,≤ 200,"N#Cc1ccc(C(=O)Nc2nnc(OCc3ccc(Cl)cc3)s2)c(N2CCOCC2)n1 [Example 14, N-(5-((4-chlorobenzyl)oxy)-1,3,4-thiadiazol-2-yl)-6-cyano-2-morpholinonicotinamide]"
5,1000 to 10000,O=C(Nc1nnc(OCc2ccc(Cl)cn2)s1)c1cccnc1N1CCOCC1 [Example 3]
6,1000 to 10000,"COc1cc(N2CCOCC2)c(C(=O)Nc2nnc(OCc3ccc(Cl)cn3)s2)cn1 [Example 36, N-(5-((5-chloropyridin-2-yl)methoxy)-1,3,4-thiadiazol-2-yl)-6-methoxy-4-morpholinonicotinamide]"
7,≤ 200,"COc1cnccc1-c1cnccc1C(=O)Nc1nnc(OCc2ccc(Cl)cc2)s1 [Example 131, N-(5-((4-chlorobenzyl)oxy)-1,3,4-thiadiazol-2-yl)-3′-methoxy-[3,4′-bipyridine]-4-carboxamide]"
8,≤ 200,"COc1ccccc1-c1cnccc1C(=O)Nc1nnc(OCc2cccc3[nH]cnc23)s1 [Example 145, N-[5-(1H-1,3-benzodiazol-4-ylmethoxy)-1,3,4-thiadiazol-2-yl]-3-(2-methoxyphenyl)pyridine-4-carboxamide]"
9,≤ 200,"N#Cc1cc(N2CCOC3(CC3)C2)c(C(=O)Nc2nnc(OCc3ccc(Cl)cc3)s2)cn1 [Example 177, N-[5-[(4-chlorophenyl)methoxy]-1,3,4-thiadiazol-2-yl]-6-cyano-4-[4-oxa-7-azaspiro[2.5]octan-7-yl]pyridine-3-carboxamide]"
10,≤ 200,"COc1ccccc1-c1cnc(CC#N)cc1C(=O)Nc1nnc(OCc2ccc(Cl)cc2)s1 [Example 137, N-[5-[(4-chlorophenyl)methoxy]-1,3,4-thiadiazol-2-yl]-2-(cyanomethyl)-5-(2-methoxyphenyl)pyridine-4-carboxamide]"
11,≤ 200,"COc1ccccc1-c1cc(CCC(N)=O)ncc1C(=O)Nc1nnc(OCc2ccc(Cl)cc2)s1 [Example 163, 6-(3-amino-3-oxopropyl)-N-(5-((4-chlorobenzyl)oxy)-1,3,4-thiadiazol-2-yl)-4-(2-methoxyphenyl)nicotinamide]"
12,≤ 200,"C[C@H]1COC[C@H](C)N1c1cnccc1C(=O)Nc1nnc(OCc2ccc(Cl)cn2)s1 [Example 187, N-(5-((5-chloropyridin-2-yl)methoxy)-1,3,4-thiadiazol-2-yl)-3-((3S,5S)-3,5-dimethylmorpholino)isonicotinamide]"
13,1000 to 10000,"COc1ccccc1-c1cc(C(C)(C)O)ncc1C(=O)Nc1nnc(OCc2ccc(Cl)cn2)s1 [Example 207, N-(5-((5-chloropyridin-2-yl)methoxy)-1,3,4-thiadiazol-2-yl)-6-(2-hydroxypropan-2-yl)-4-(2-methoxyphenyl)nicotinamide]"
14,200 to 500,"O=C(Nc1nnc(OCc2ccc(Br)cc2)s1)c1cccnc1N1CCOCC1 [Example 40, N-(5-((4-bromobenzyl)oxy)-1,3,4-thiadiazol-2-yl)-2-morpholinonicotinamide]"
15,≤ 200,"COc1ccccc1-c1cnccc1C(=O)Nc1nnc(OCc2ccc(C3(C#N)CC3)cc2)s1 [Example 141, N-(5-[[4-(1-cyanocyclopropyl)phenyl]methoxy]-1,3,4-thiadiazol-2-yl)-3-(2-methoxyphenyl)pyridine-4-carboxamide]"
16,≤ 200,"COc1ccccc1-c1cnccc1C(=O)Nc1nnc(OCc2ccc(Cl)c(Cl)c2)s1 [Example 158, N-[5-[(3,4-dichlorophenyl)methoxy]-1,3,4-thiadiazol-2-yl]-3-(2-methoxyphenyl)pyridine-4-carboxamide]"
17,1000 to 10000,"O=C(Nc1nnc(OCc2ccc(Cl)cc2)s1)c1cccnc1N1CCN(CCO)C(=O)C1 [Example 68, N-(5-((4-chlorobenzyl)oxy)-1,3,4-thiadiazol-2-yl)-2-(4-(2-hydroxyethyl)-3-oxopiperazin-1-yl)nicotinamide]"
